Test results: ChEMBL document CHEMBL3046941, “Synthesis of novel isoxazolines via 1,3-dipolar cycloaddition and evaluation of anti-stress activity” (2011)

Experiments:
Type in all cases: functional
Rattus norvegicus [1] = test: Antistress activity in Rattus norvegicus Sprague-Dawley (rat) assessed as inhibition of acute stress-induced increase in corticosterone level at 40 mg/kg, po (reference value: 465.7 +/- 15.77 ng/ml)
Rattus norvegicus [2] = test: Antistress activity in Rattus norvegicus Sprague-Dawley (rat) assessed as inhibition of acute stress-induced hyperglycemia measured as glucose level at 40 mg/kg, po (reference value: 134.7 +/- 4.68 mg/dl)
Rattus norvegicus [3] = test: Antistress activity in Rattus norvegicus Sprague-Dawley (rat) assessed as inhibition of acute stress-induced adrenal hypertrophy measured as adrenal gland weight per 100 g of body weight at 40 mg/kg, po (reference value: 10.20 +/- 0.69 mg)
Rattus norvegicus [4] = test: Antistress activity in Rattus norvegicus Sprague-Dawley (rat) assessed as inhibition of acute stress-induced plasma creatinine kinase activity at 40 mg/kg, po (reference value: 1115 +/- 29.43 IU/dl)

## COc1cc(CC2CC(c3cccc4ccccc34)=NO2)ccc1OCc1ccccc1 (stereo unspecified)
Rattus norvegicus [1]
  Activity: 444.7 ng/mL
Rattus norvegicus [2]
  Activity: 116.3 mg/dL
Rattus norvegicus [3]
  Activity: 9.6 mg
Rattus norvegicus [4]
  Activity: 994.5 IU/dl

## COc1cc(CC2CC(c3cccc4ccccc34)=NO2)ccc1OCCN1CCCC1 (stereo unspecified)
Rattus norvegicus [1]
  Activity: 421 ng/mL
Rattus norvegicus [2]
  Activity: 125 mg/dL
Rattus norvegicus [3]
  Activity: 10.58 mg
Rattus norvegicus [4]
  Activity: 1074 IU/dl

## COc1cc(CC2CC(c3cccc4ccccc34)=NO2)ccc1OCCN1CCCCC1 (stereo unspecified)
Rattus norvegicus [1]
  Activity: 282.5 ng/mL
Rattus norvegicus [2]
  Activity: 78.17 mg/dL
Rattus norvegicus [3]
  Activity: 7.23 mg
Rattus norvegicus [4]
  Activity: 603.7 IU/dl

## COc1ccc(C2=NOC(Cc3ccc(O)c(OC)c3)C2)c(OC)c1 (stereo unspecified)
Rattus norvegicus [1]
  Activity: 432.2 ng/mL
Rattus norvegicus [2]
  Activity: 112 mg/dL
Rattus norvegicus [3]
  Activity: 9.31 mg
Rattus norvegicus [4]
  Activity: 1004 IU/dl

## COc1ccc(C2=NOC(Cc3ccc(OC(C)=O)c(OC)c3)C2)c(OC)c1 (stereo unspecified)
Rattus norvegicus [1]
  Activity: 364.2 ng/mL
Rattus norvegicus [2]
  Activity: 107.2 mg/dL
Rattus norvegicus [3]
  Activity: 7.01 mg
Rattus norvegicus [4]
  Activity: 766.71 IU/dl

## COc1ccc(C2=NOC(Cc3ccc(OC)c(OC)c3)C2)c(OC)c1 (stereo unspecified)
Rattus norvegicus [1]
  Activity: 446 ng/mL
Rattus norvegicus [2]
  Activity: 122 mg/dL
Rattus norvegicus [3]
  Activity: 9.63 mg
Rattus norvegicus [4]
  Activity: 1092 IU/dl

## CCOc1ccc(CC2CC(c3ccc(OC)cc3OC)=NO2)cc1OC (stereo unspecified)
Rattus norvegicus [1]
  Activity: 275.5 ng/mL
Rattus norvegicus [2]
  Activity: 93 mg/dL
Rattus norvegicus [3]
  Activity: 7.82 mg
Rattus norvegicus [4]
  Activity: 729.7 IU/dl

## COc1ccc(C2=NOC(Cc3ccc(OCc4ccccc4)c(OC)c3)C2)c(OC)c1 (stereo unspecified)
Rattus norvegicus [1]
  Activity: 354.8 ng/mL
Rattus norvegicus [2]
  Activity: 80.5 mg/dL
Rattus norvegicus [3]
  Activity: 8.01 mg
Rattus norvegicus [4]
  Activity: 664.3 IU/dl

## COc1ccc(C2=NOC(Cc3ccc(OCCN4CCCC4)c(OC)c3)C2)c(OC)c1 (stereo unspecified)
Rattus norvegicus [1]
  Activity: 429.8 ng/mL
Rattus norvegicus [2]
  Activity: 127 mg/dL
Rattus norvegicus [3]
  Activity: 9.82 mg
Rattus norvegicus [4]
  Activity: 934.7 IU/dl

## COc1ccc(C2=NOC(Cc3ccc(OCCN4CCCCC4)c(OC)c3)C2)c(OC)c1 (stereo unspecified)
Rattus norvegicus [1]
  Activity: 320 ng/mL
Rattus norvegicus [2]
  Activity: 101.7 mg/dL
Rattus norvegicus [3]
  Activity: 7.6 mg
Rattus norvegicus [4]
  Activity: 733.8 IU/dl

## COc1cc(CC2CC(c3cccc4ccccc34)=NO2)ccc1O (stereo unspecified)
Rattus norvegicus [1]
  Activity: 417.2 ng/mL
Rattus norvegicus [2]
  Activity: 86.24 mg/dL
Rattus norvegicus [3]
  Activity: 9.86 mg
Rattus norvegicus [4]
  Activity: 998.5 IU/dl

## COc1cc(CC2CC(c3cccc4ccccc34)=NO2)ccc1OC(C)=O (stereo unspecified)
Rattus norvegicus [1]
  Activity: 311.8 ng/mL
Rattus norvegicus [2]
  Activity: 74.67 mg/dL
Rattus norvegicus [3]
  Activity: 7.77 mg
Rattus norvegicus [4]
  Activity: 673 IU/dl

## COc1ccc(CC2CC(c3cccc4ccccc34)=NO2)cc1OC (stereo unspecified)
Rattus norvegicus [1]
  Activity: 293.5 ng/mL
Rattus norvegicus [2]
  Activity: 109.51 mg/dL
Rattus norvegicus [3]
  Activity: 7.54 mg
Rattus norvegicus [4]
  Activity: 590 IU/dl

## CCOc1ccc(CC2CC(c3cccc4ccccc34)=NO2)cc1OC (stereo unspecified)
Rattus norvegicus [1]
  Activity: 292.3 ng/mL
Rattus norvegicus [2]
  Activity: 72.83 mg/dL
Rattus norvegicus [3]
  Activity: 7.89 mg
Rattus norvegicus [4]
  Activity: 625.7 IU/dl
